In patent US20140328951A1, “Composition for Preventing and Treating Vision Deterioration and Age-Related Macular Degeneration through Retinal Repair Using Ginseng/Red Ginseng Extracts and Ginsenoside” (GBIOMIX. CO., LTD., priority 2011, published 2014):

How the values were obtained:
[1] = tested on: human Bruch's membrane; assay: Hydraulic conductivity of Bruch's membrane in open-type Ussing chambers; details: 24 hours incubation
Method: Bruch's samples were mounted in open-type Ussing chambers and perfused with Tris-HCl buffer. Eluted samples (fluid coming through Bruch's membrane) were collected and measured for fluid transport. Control was perfused with Tris-HCl buffer whilst others were perfused with ginseng fractions for 24 hours.
Transport was tested as described in Example 3, and measured after 24 hours incubation with ginsenosides.
Transport was tested as described in Example 3, and measured after 24 hours incubation with 10% red ginseng extract.

[2] = tested on: Retinal Pigment Epithelium (RPE) of Pig Eyes; assay: Release of MMPs from RPE of pig eyecups (gelatin zymography); format: cell-based; details: pig eyecup
Method: Pig whole eyecup preparations of RPE were used in these experiments. Standard buffer for incubations utilised […] supplemented with foetal calf serum and antibiotics. Eyecups were incubated in this basal medium as control and in medium containing ginseng extract. Following a 6-24 hour incubation, the incubating medium was collected and subjected to gelatin zymography to analyse the type and level of MMP species present. In control medium, both pro- and active MMP 2&9 species are released continuously from the RPE (FIG. 7). […] This effect of KRG is conducive for regenerating Bruch's membrane. […]

[3] = 6-24 hour incubation, gelatin zymography, Ginseng extract at 10%

| SMILES | Effect on hydraulic conductivity of human Bruch's membrane (in words) ([1]; 190 ug/ml) | Fold change in hydraulic conductivity over basal ([1]; 190 ug/ml, 5 donors) | Release of active MMP2 from the RPE [2, 3] | Release of pro-MMP2 from the RPE [2, 3] | Release of pro-MMP9 from the RPE [2, 3] | Effect on hydraulic conductivity of human Bruch's membrane (in words) ([1]; 200 ug/ml) | Fold change in hydraulic conductivity over basal ([1]; 200 ug/ml, 1 donor) | Activated HMW1 level [2, 3] | Release of active MMP9 from the RPE [2, 3] | Release of MMPs from the RPE (overall) ([2]; FIG. 7) |
| --- | --- | --- | --- | --- | --- | --- | --- | --- | --- | --- |
| CC(C)=CCC[C@](C)(O[C@@H]1O[C@H](CO)[C@@H](O)[C@H](O)[C@H]1O)[C@H]1CC[C@]2(C)[C@@H]1[C@H](O)C[C@@H]1[C@@]3(C)CC[C@H](O)C(C)(C)[C@@H]3CC[C@]12C [Compound K, 20-O-β-d-glucopyranosyl-20(S)-protopanaxadiol] | increased hydraulic conductivity | 1.45 ± 0.15 | consistently increased | consistently increased | consistently increased |  |  |  |  |  |
| CC(C)=CCC[C@](C)(O[C@@H]1O[C@H](CO[C@@H]2O[C@H](CO)[C@@H](O)[C@H](O)[C@H]2O)[C@@H](O)[C@H](O)[C@H]1O)[C@H]1CC[C@]2(C)[C@@H]1[C@H](O)C[C@@H]1[C@@]3(C)CC[C@H](O[C@@H]4O[C@H](CO)[C@@H](O)[C@H](O)[C@H]4O[C@@H]4O[C@H](CO)[C@@H](O)[C@H](O)[C@H]4O)C(C)(C)[C@@H]3CC[C@]12C [Rb1] |  |  | did increase | did increase | effective in reducing the level of pro-MMP9 | increased | 1.27 | increased activated HMW1 levels | without effect |  |
| CC(C)=CCC[C@](C)(O[C@@H]1O[C@H](CO)[C@@H](O)[C@H](O)[C@H]1O)[C@H]1CC[C@]2(C)[C@@H]1[C@H](O)C[C@@H]1[C@@]3(C)CC[C@H](O)C(C)(C)[C@@H]3[C@@H](O[C@@H]3O[C@H](CO)[C@@H](O)[C@H](O)[C@H]3O)C[C@]12C [Rg1] |  |  |  |  | increased the amount of pro-MMP9 | increased | 1.2 |  |  | without effect |
